Data reported in US20140018750A1, “METHOD AND DEVICE OR PHARMACEUTICAL COMPOSITIONS FOR THE TRANSDERMAL DELIVERY OF MAGNESIUM DIRECTLY TO THE NEUROMUSCULAR JUNCTION FOR THE TREATMENT OF MUSCLE CRAMPING” (priority 2012, published 2014).

Experiments:
sciatica = conditions: Patient Michael, cream composed of aloe combined with 8% by MW of magnesium sulfate

**Q.** What does the source list for `O=S(=O)([O-])[O-].[Mg+2]` [magnesium sulfate]?
**A.** time to relief (muscle cramping; Patient Doris, reoccurring severe muscle cramps in the right foot, liquid solution, 8% by MW of magnesium sulfate, applied to the area): three; time until began to experience relief (muscle cramping; Patient Henry, severe muscle cramps in the upper right arm after exertion, liquid form of 8% by MW of magnesium sulfate applied directly): three; time to relief from both symptoms (muscle cramping; Patient Norma, severe leg cramps with restless leg syndrome, towel soaked in composition with 8% by MW of magnesium sulfate applied to affected area): four; time to relief (sciatica): six
